In patent US6706663B2, “Herbicidal 3-heterocyclic substituted benzisothiazole and benzisoxazole compounds” (Wyeth, priority 2000, dated 2004):

Legend:
[1] = system: SAGPY (Sagittaria pygmaea); experiment: Flooded paddy, preemergence weed control; format: in vivo, L.; settings: rated 3-4 weeks after treatment, 0-9 rating scale
Procedure, shortened: (§1)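 Scoring used a 0-9 visual scale relative to control. Before that, seeds or propagules were planted shallowly in silt loam and flooded to 1.5–3 cm, a depth maintained throughout, with greenhouse care during the test.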

GALAP (Galium aparine) [2] = experiment: Preemergence herbicidal evaluation; format: in vivo; settings: preemergence, rated 4-5 weeks after treatment
Procedure, shortened: (§2)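 Applied before emergence as an aqueous acetone spray over seeded soil. Read-out: 0–9 visual rating covering plant stand, vigor, size, chlorosis, malformation and overall appearance compared with control, taken 4–5 weeks after spraying.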

[3] = system: ECHORC (Echinochloa oryzoides); experiment: Flooded paddy, preemergence weed control; format: in vivo, Echinochloa oryzoides (Ard.) Fritsch.; settings: rated 3-4 weeks after treatment, 0-9 rating scale
Procedure, shortened: as §1

ZEAMX (Corn, Field) [4] = experiment: Preemergence herbicidal evaluation; format: in vivo, Zea mays, L.; settings: preemergence, rated 4-5 weeks after treatment
[5] = system: IPOHE (Ipomoea hederacea); experiment: Postemergence herbicidal evaluation; format: in vivo, (L.) Jacq.; settings: postemergence
Procedure, shortened: (§3)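 Seedlings grown about two weeks in flats, sprayed, then kept under standard greenhouse care. Rated visually 4–5 weeks after treatment on a 0–9 scale (stand, vigour, malformation, size, chlorosis, overall appearance) relative to untreated control; repeat tests averaged.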

[6] = system: CHEAL (Chenopodium album); experiment: Postemergence herbicidal evaluation; format: in vivo, L.; settings: postemergence
Procedure, shortened: as §3

[7] = system: CASOB (Cassia obtusifolia); experiment: Postemergence herbicidal evaluation; format: in vivo, L.; settings: postemergence
Procedure, shortened: as §3

[8] = system: AMBEL (Ambrosia artemisifolia); experiment: Postemergence herbicidal evaluation; format: in vivo, L.; settings: postemergence
Procedure, shortened: as §3

[9] = system: ABUTH (Abutilon theophrasti); experiment: Postemergence herbicidal evaluation; format: in vivo, Medic.; settings: postemergence
Procedure, shortened: as §3

[10] = system: CHEAL (Chenopodium album); experiment: Preemergence herbicidal evaluation; format: in vivo, L.; settings: preemergence, rated 4-5 weeks after treatment
Procedure, shortened: as §2

[11] = system: CASOB (Cassia obtusifolia); experiment: Preemergence herbicidal evaluation; format: in vivo, L.; settings: preemergence, rated 4-5 weeks after treatment
Procedure, shortened: as §2

[12] = system: AMBEL (Ambrosia artemisifolia); experiment: Preemergence herbicidal evaluation; format: in vivo, L.; settings: preemergence, rated 4-5 weeks after treatment
Procedure, shortened: as §2

[13] = system: IPOHE (Ipomoea hederacea); experiment: Preemergence herbicidal evaluation; format: in vivo, (L.) Jacq.; settings: preemergence, rated 4-5 weeks after treatment
ZEAMX (Corn, Field) [14] = experiment: Postemergence herbicidal evaluation; format: in vivo, Zea mays, L.; settings: postemergence
Procedure, shortened: as §3

[15] = system: GLXMAW (Soybean, Williams); experiment: Postemergence herbicidal evaluation; format: in vivo, Glycine max, (L.) Merr. cv Williams; settings: postemergence
Procedure, shortened: as §3

[16] = system: GLXMAW (Soybean, Williams); experiment: Preemergence herbicidal evaluation; format: in vivo, Glycine max, (L.) Merr. cv Williams; settings: preemergence, rated 4-5 weeks after treatment
GALAP (Galium aparine) [17] = experiment: Postemergence herbicidal evaluation; format: in vivo; settings: postemergence
Procedure, shortened: as §3

CYPIR (Cyperus iria) = experiment: Flooded paddy, preemergence weed control; format: in vivo; settings: rated 3-4 weeks after treatment, 0-9 rating scale
Procedure, shortened: as §1

ORYSAT (Rice, Tebonnet) = experiment: Preemergence herbicidal evaluation; format: in vivo, Oryza sativa, (L.) Tebonnet; settings: preemergence, rated 4-5 weeks after treatment
[18] = system: ECHCG (Echinochloa crus-galli); experiment: Postemergence herbicidal evaluation; format: in vivo, (L.) Beau; settings: postemergence
Procedure, shortened: as §3

## Cn1c(C(F)(F)F)cc(=O)n(-c2ccc3snc(C4OCC(CS(C)(=O)=O)O4)c3c2)c1=O (single isomer, unassigned) [Compound 86, 1-methyl-3-[3-[4-[(methylsulfonyl)methyl]-1,3-dioxolan-2-yl]-1,2-benzisothiazol-5-yl]-6-(trifluoromethyl)uracil]
[1]; rate 0.0320 kg/ha
  SAGPY herbicidal rating: 0.0
[1]; rate 0.1250 kg/ha
  SAGPY herbicidal rating: 0.0
GALAP (Galium aparine) [2]; rate 0.0620 kg/ha
  Preemergence herbicidal rating GALAP: 3.0
GALAP (Galium aparine) [2]; rate 0.1250 kg/ha
  Preemergence herbicidal rating GALAP: 4.0
GALAP (Galium aparine) [2]; rate 0.2500 kg/ha
  Preemergence herbicidal rating GALAP: 9.0
[3]; rate 0.0320 kg/ha
  ECHORC herbicidal rating: 0.0
[3]; rate 0.1250 kg/ha
  ECHORC herbicidal rating: 3.0
ZEAMX (Corn, Field) [4]; rate 0.0620 kg/ha
  Preemergence herbicidal rating ZEAMX: 5.0
ZEAMX (Corn, Field) [4]; rate 0.1250 kg/ha
  Preemergence herbicidal rating ZEAMX: 8.0
ZEAMX (Corn, Field) [4]; rate 0.2500 kg/ha
  Preemergence herbicidal rating ZEAMX: 9.0
[5]; rate 0.0320 kg/ha
  IPOHE herbicidal rating: 9.0
[5]; rate 0.0620 kg/ha
  IPOHE herbicidal rating: 9.0
[6]; rate 0.0320 kg/ha
  CHEAL herbicidal rating: 9.0
[6]; rate 0.0620 kg/ha
  CHEAL herbicidal rating: 9.0
[7]; rate 0.0320 kg/ha
  CASOB herbicidal rating: 7.0
[7]; rate 0.0620 kg/ha
  CASOB herbicidal rating: 9.0
[8]; rate 0.0320 kg/ha
  AMBEL herbicidal rating: 9.0
[8]; rate 0.0620 kg/ha
  AMBEL herbicidal rating: 9.0
[9]; rate 0.0320 kg/ha
  ABUTH herbicidal rating: 9.0
[9]; rate 0.0620 kg/ha
  ABUTH herbicidal rating: 9.0
[10]; rate 0.0620 kg/ha
  Preemergence herbicidal rating CHEAL: 9.0
[10]; rate 0.1250 kg/ha
  Preemergence herbicidal rating CHEAL: 9.0
[10]; rate 0.2500 kg/ha
  Preemergence herbicidal rating CHEAL: 9.0
[11]; rate 0.0620 kg/ha
  Preemergence herbicidal rating CASOB: 4.0
[11]; rate 0.1250 kg/ha
  Preemergence herbicidal rating CASOB: 9.0
[11]; rate 0.2500 kg/ha
  Preemergence herbicidal rating CASOB: 9.0
[12]; rate 0.0620 kg/ha
  Preemergence herbicidal rating AMBEL: 9.0
[12]; rate 0.1250 kg/ha
  Preemergence herbicidal rating AMBEL: 9.0
[12]; rate 0.2500 kg/ha
  Preemergence herbicidal rating AMBEL: 9.0
[13]; rate 0.0620 kg/ha
  Preemergence herbicidal rating IPOHE: 4.0
[13]; rate 0.1250 kg/ha
  Preemergence herbicidal rating IPOHE: 9.0
[13]; rate 0.2500 kg/ha
  Preemergence herbicidal rating IPOHE: 9.0
ZEAMX (Corn, Field) [14]; rate 0.0320 kg/ha
  ZEAMX herbicidal rating: 4.0
ZEAMX (Corn, Field) [14]; rate 0.0620 kg/ha
  ZEAMX herbicidal rating: 4.0
[15]; rate 0.0320 kg/ha
  GLXMAW herbicidal rating: 9.0
[15]; rate 0.0620 kg/ha
  GLXMAW herbicidal rating: 9.0
[16]; rate 0.0620 kg/ha
  Preemergence herbicidal rating GLXMAW: 7.0
[16]; rate 0.1250 kg/ha
  Preemergence herbicidal rating GLXMAW: 9.0
[16]; rate 0.2500 kg/ha
  Preemergence herbicidal rating GLXMAW: 9.0
GALAP (Galium aparine) [17]; rate 0.0320 kg/ha
  GALAP herbicidal rating: 9.0
GALAP (Galium aparine) [17]; rate 0.0620 kg/ha
  GALAP herbicidal rating: 9.0
CYPIR (Cyperus iria); rate 0.0320 kg/ha
  CYPIR herbicidal rating: 0.0
CYPIR (Cyperus iria); rate 0.1250 kg/ha
  CYPIR herbicidal rating: 0.0
ORYSAT (Rice, Tebonnet); rate 0.0620 kg/ha
  Preemergence herbicidal rating ORYSAT: 5.0
ORYSAT (Rice, Tebonnet); rate 0.1250 kg/ha
  Preemergence herbicidal rating ORYSAT: 7.0
ORYSAT (Rice, Tebonnet); rate 0.2500 kg/ha
  Preemergence herbicidal rating ORYSAT: 9.0
[18]; rate 0.0320 kg/ha
  ECHCG herbicidal rating: 4.0
[18]; rate 0.0620 kg/ha
  ECHCG herbicidal rating: 5.0

## Cn1c(C(F)(F)F)cc(=O)n(-c2ccc3snc(C4OCC(CS(C)(=O)=O)O4)c3c2)c1=O (single isomer, unassigned) [Compound 87, 1-methyl-3-[3-[4-[(methylsulfonyl)methyl]-1,3-dioxolan-2-yl]-1,2-benzisothiazol-5-yl]-6-(trifluoromethyl)uracil]
[1]; rate 0.0320 kg/ha
  SAGPY herbicidal rating: 0.0
[1]; rate 0.1250 kg/ha
  SAGPY herbicidal rating: 0.0
GALAP (Galium aparine) [2]; rate 0.0620 kg/ha
  Preemergence herbicidal rating GALAP: 6.0
GALAP (Galium aparine) [2]; rate 0.1250 kg/ha
  Preemergence herbicidal rating GALAP: 9.0
GALAP (Galium aparine) [2]; rate 0.2500 kg/ha
  Preemergence herbicidal rating GALAP: 9.0
[3]; rate 0.0320 kg/ha
  ECHORC herbicidal rating: 0.0
[3]; rate 0.1250 kg/ha
  ECHORC herbicidal rating: 0.0
ZEAMX (Corn, Field) [4]; rate 0.0620 kg/ha
  Preemergence herbicidal rating ZEAMX: 5.5
ZEAMX (Corn, Field) [4]; rate 0.1250 kg/ha
  Preemergence herbicidal rating ZEAMX: 8.0
ZEAMX (Corn, Field) [4]; rate 0.2500 kg/ha
  Preemergence herbicidal rating ZEAMX: 8.5
[5]; rate 0.0320 kg/ha
  IPOHE herbicidal rating: 9.0
[5]; rate 0.0620 kg/ha
  IPOHE herbicidal rating: 9.0
[6]; rate 0.0320 kg/ha
  CHEAL herbicidal rating: 9.0
[6]; rate 0.0620 kg/ha
  CHEAL herbicidal rating: 9.0
[7]; rate 0.0320 kg/ha
  CASOB herbicidal rating: 9.0
[7]; rate 0.0620 kg/ha
  CASOB herbicidal rating: 9.0
[8]; rate 0.0320 kg/ha
  AMBEL herbicidal rating: 9.0
[8]; rate 0.0620 kg/ha
  AMBEL herbicidal rating: 9.0
[9]; rate 0.0320 kg/ha
  ABUTH herbicidal rating: 9.0
[9]; rate 0.0620 kg/ha
  ABUTH herbicidal rating: 9.0
[10]; rate 0.0620 kg/ha
  Preemergence herbicidal rating CHEAL: 9.0
[10]; rate 0.1250 kg/ha
  Preemergence herbicidal rating CHEAL: 9.0
[10]; rate 0.2500 kg/ha
  Preemergence herbicidal rating CHEAL: 9.0
[11]; rate 0.0620 kg/ha
  Preemergence herbicidal rating CASOB: 6.0
[11]; rate 0.1250 kg/ha
  Preemergence herbicidal rating CASOB: 9.0
[11]; rate 0.2500 kg/ha
  Preemergence herbicidal rating CASOB: 7.0
[12]; rate 0.0620 kg/ha
  Preemergence herbicidal rating AMBEL: 9.0
[12]; rate 0.1250 kg/ha
  Preemergence herbicidal rating AMBEL: 9.0
[12]; rate 0.2500 kg/ha
  Preemergence herbicidal rating AMBEL: 9.0
[13]; rate 0.0620 kg/ha
  Preemergence herbicidal rating IPOHE: 5.0
[13]; rate 0.1250 kg/ha
  Preemergence herbicidal rating IPOHE: 6.0
[13]; rate 0.2500 kg/ha
  Preemergence herbicidal rating IPOHE: 9.0
ZEAMX (Corn, Field) [14]; rate 0.0320 kg/ha
  ZEAMX herbicidal rating: 3.5
ZEAMX (Corn, Field) [14]; rate 0.0620 kg/ha
  ZEAMX herbicidal rating: 3.5
[15]; rate 0.0320 kg/ha
  GLXMAW herbicidal rating: 9.0
[15]; rate 0.0620 kg/ha
  GLXMAW herbicidal rating: 8.5
[16]; rate 0.0620 kg/ha
  Preemergence herbicidal rating GLXMAW: 9.0
[16]; rate 0.1250 kg/ha
  Preemergence herbicidal rating GLXMAW: 9.0
[16]; rate 0.2500 kg/ha
  Preemergence herbicidal rating GLXMAW: 9.0
GALAP (Galium aparine) [17]; rate 0.0320 kg/ha
  GALAP herbicidal rating: 9.0
GALAP (Galium aparine) [17]; rate 0.0620 kg/ha
  GALAP herbicidal rating: 9.0
CYPIR (Cyperus iria); rate 0.0320 kg/ha
  CYPIR herbicidal rating: 0.0
CYPIR (Cyperus iria); rate 0.1250 kg/ha
  CYPIR herbicidal rating: 5.0
ORYSAT (Rice, Tebonnet); rate 0.0620 kg/ha
  Preemergence herbicidal rating ORYSAT: 2.0
ORYSAT (Rice, Tebonnet); rate 0.1250 kg/ha
  Preemergence herbicidal rating ORYSAT: 3.0
ORYSAT (Rice, Tebonnet); rate 0.2500 kg/ha
  Preemergence herbicidal rating ORYSAT: 5.0
[18]; rate 0.0320 kg/ha
  ECHCG herbicidal rating: 3.0
[18]; rate 0.0620 kg/ha
  ECHCG herbicidal rating: 4.0
